Test results as given in US9708318B2, “Bicyclic heterocycles as FGFR4 inhibitors” (Incyte Corporation, priority 2015, dated 2017).
Read-outs that look alike come from different tables or passages of the source.

Legend:
FGFR1 = FGFR1 (Homo sapiens (Human), UniProt P11362); assay: FGFR Enzymatic Assay (FRET peptide phosphorylation), FGFR1
FGFR2 = FGFR2 (Homo sapiens (Human), UniProt P21802); assay: FGFR Enzymatic Assay (FRET peptide phosphorylation), FGFR2; type: biochemical
Experimental: (§1) The inhibitor potency of the exemplified compounds was measured in an enzyme assay that measures peptide phosphorylation using FRET measurements to detect product formation. Inhibitors were serially diluted in DMSO and a volume of 0.5 μL was transferred to the wells of a 384-well plate.
(§2) The enzymes were purchased from Millipore or Invitrogen.
(§3) GraphPad prism3 was used to analyze the data.

FGFR4 = FGFR4 (Homo sapiens (Human), UniProt P22455); assay: FGFR Enzymatic Assay (FRET peptide phosphorylation), FGFR4; type: biochemical; conditions: for FGFR1/FGFR4 IC50 ratio / FGFR2/FGFR4 IC50 ratio / FGFR3/FGFR4 IC50 ratio: FGFR4 selectivity
Experimental: as §1, §2, §3

FGFR3 enzyme = FGFR3 enzyme (Homo sapiens (Human), UniProt P22607); assay: FGFR Enzymatic Assay (FRET peptide phosphorylation), FGFR3; type: biochemical; conditions: for FGFR1/FGFR3 IC50 ratio / FGFR4/FGFR3 IC50 ratio: FGFR3 selectivity
Experimental: as §1, §3

[1] = FGFR1 IC50 (nM), pre-incubated for 5 to 10 minutes
[2] = pre-incubated for 5 to 10 minutes
[3] = pre-incubated for 5 to 10 minutes, read-out: FGFR3 IC50
[4] = FGFR1 IC50 (nM), pre-incubated for 4 hours
[5] = pre-incubated for 4 hours, read-out: FGFR3 IC50
[6] = read-out: FGFR1 IC50, pre-incubated for 4 hours

Chain of FGFR2 (P21802 22-821): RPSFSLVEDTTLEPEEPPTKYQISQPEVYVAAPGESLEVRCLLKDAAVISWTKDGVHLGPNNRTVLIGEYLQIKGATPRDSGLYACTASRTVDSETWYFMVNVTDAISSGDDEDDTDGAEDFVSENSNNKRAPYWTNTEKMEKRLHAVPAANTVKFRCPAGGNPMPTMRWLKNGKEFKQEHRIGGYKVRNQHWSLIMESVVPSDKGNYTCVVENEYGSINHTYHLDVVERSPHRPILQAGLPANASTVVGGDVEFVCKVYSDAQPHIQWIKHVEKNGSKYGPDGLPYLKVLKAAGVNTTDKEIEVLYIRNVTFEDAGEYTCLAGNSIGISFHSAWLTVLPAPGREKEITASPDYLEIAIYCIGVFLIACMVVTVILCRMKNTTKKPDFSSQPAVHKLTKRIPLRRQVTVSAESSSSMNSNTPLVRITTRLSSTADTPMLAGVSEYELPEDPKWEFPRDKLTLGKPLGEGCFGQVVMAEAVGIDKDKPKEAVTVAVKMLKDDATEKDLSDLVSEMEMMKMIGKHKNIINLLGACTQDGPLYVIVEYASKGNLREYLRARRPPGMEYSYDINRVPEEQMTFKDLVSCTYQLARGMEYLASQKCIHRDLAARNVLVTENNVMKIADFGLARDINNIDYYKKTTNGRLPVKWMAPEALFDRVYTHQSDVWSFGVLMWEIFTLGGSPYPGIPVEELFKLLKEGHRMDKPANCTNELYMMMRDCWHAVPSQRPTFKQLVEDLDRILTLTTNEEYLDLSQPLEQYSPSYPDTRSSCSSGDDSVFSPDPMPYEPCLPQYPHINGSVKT
Chain of FGFR4 (P22455 22-802): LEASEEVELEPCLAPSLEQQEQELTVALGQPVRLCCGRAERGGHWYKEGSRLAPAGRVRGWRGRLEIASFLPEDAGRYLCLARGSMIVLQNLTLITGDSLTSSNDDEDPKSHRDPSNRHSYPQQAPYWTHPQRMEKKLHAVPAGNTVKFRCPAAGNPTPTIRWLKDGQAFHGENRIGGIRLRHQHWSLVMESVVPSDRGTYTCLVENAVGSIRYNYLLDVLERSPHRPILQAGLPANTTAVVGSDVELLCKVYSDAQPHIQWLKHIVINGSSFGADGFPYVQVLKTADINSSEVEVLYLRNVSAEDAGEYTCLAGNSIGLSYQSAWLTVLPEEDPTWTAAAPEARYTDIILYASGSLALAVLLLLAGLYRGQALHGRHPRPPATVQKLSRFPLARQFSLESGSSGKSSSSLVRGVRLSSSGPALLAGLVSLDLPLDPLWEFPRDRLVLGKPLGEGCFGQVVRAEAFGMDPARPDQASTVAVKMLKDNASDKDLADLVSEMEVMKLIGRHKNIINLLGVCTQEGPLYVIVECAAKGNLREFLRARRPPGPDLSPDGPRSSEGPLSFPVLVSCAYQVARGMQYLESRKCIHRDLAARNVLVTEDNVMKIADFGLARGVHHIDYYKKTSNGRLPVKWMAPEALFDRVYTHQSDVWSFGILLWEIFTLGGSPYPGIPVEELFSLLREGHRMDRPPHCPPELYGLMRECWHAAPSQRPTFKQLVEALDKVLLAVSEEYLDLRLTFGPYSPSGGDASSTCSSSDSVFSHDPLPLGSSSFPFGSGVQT
Chain of FGFR1 (P11362 22-822): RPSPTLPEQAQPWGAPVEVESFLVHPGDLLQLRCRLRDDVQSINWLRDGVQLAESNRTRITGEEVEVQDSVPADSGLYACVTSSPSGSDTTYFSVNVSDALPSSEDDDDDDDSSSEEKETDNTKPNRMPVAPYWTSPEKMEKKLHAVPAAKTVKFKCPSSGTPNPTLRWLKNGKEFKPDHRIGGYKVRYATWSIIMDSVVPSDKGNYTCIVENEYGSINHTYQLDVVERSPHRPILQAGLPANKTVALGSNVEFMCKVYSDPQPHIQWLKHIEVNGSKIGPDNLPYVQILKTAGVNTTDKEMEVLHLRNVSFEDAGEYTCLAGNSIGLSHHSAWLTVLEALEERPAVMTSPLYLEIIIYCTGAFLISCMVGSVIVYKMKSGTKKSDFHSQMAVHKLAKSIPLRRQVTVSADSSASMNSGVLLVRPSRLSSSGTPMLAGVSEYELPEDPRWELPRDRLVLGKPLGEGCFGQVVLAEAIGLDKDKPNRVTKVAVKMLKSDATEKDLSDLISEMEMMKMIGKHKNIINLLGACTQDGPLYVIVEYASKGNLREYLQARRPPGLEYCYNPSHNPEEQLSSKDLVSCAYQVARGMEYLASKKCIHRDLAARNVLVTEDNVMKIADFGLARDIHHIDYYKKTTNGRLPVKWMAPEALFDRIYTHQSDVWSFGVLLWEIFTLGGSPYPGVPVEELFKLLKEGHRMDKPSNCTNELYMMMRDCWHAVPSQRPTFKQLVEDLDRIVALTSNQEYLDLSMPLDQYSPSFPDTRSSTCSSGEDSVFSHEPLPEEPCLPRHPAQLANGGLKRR
Chain of FGFR3 enzyme (P22607 23-806): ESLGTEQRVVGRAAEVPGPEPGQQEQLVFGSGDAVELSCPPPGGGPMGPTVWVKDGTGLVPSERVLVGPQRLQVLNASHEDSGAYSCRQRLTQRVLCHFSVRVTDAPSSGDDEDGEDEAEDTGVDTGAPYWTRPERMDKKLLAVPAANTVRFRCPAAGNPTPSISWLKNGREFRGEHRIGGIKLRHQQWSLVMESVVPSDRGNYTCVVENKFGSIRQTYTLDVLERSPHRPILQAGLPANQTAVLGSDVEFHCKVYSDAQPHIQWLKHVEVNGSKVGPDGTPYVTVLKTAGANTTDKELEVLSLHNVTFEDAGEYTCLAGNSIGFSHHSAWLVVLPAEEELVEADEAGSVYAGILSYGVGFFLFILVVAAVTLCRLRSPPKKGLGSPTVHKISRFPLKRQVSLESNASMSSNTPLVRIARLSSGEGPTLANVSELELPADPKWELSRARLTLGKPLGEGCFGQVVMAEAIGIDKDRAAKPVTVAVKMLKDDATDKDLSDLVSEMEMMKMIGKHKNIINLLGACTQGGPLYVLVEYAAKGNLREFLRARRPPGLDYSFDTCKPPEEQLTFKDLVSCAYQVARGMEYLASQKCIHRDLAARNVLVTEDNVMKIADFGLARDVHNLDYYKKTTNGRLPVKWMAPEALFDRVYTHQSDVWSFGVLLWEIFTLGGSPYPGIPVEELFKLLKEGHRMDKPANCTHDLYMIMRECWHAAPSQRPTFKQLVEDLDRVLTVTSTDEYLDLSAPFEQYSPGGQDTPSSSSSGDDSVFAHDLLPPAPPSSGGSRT

| IC50 (FGFR1; [4]) [nM] | IC50 (FGFR2; pre-incubated for 4 hours) [µM] | IC50 (FGFR4; pre-incubated for 4 hours) [µM] | FGFR1/FGFR3 IC50 ratio (FGFR3 enzyme; pre-incubated for 4 hours) | FGFR4/FGFR3 IC50 ratio (FGFR3 enzyme; pre-incubated for 4 hours) | IC50 (FGFR3 enzyme; [5]) [µM] | Compound | also measured |
| --- | --- | --- | --- | --- | --- | --- | --- |
| 30 to 200 | 0.01 to 0.03 | 0.03 to 0.2 | >10 | >5 | < 0.01 | CNC(=O)c1ccc(CN2C(=O)N(c3c(F)c(OC)cc(OC)c3F)Cc3cnc(-c4cn(C)nc4C)cc32)cc1 [Example 62, 4-((3-(2,6-difluoro-3,5-dimethoxyphenyl)-7-(1,3-dimethyl-1H-pyrazol-4-yl)-2-oxo-3,4-dihydropyrido[4,3-d]pyrimidin-1(2H)-yl)methyl)-N-methylbenzamide] |  |
| 30 to 200 | < 0.01 | 0.03 to 0.2 | >5 | >5 | < 0.01 | COc1cc(OC)c(F)c(N2Cc3cnc(-c4cn(C)nc4C)cc3N(c3cccc(F)c3)C2=O)c1F [Example 99, 3-(2,6-difluoro-3,5-dimethoxyphenyl)-7-(1,3-dimethyl-1H-pyrazol-4-yl)-1-(3-fluorophenyl)-3,4-dihydropyrido[4,3-d]pyrimidin-2(1H)-one] |  |
| 30 to 200 | < 0.01 | 0.03 to 0.2 | >3 | >5 | < 0.01 | COc1cnc(N2C(=O)N(c3c(F)c(OC)cc(OC)c3F)Cc3cnc(-c4cn(C)nc4C)cc32)cn1 [Example 112, 3-(2,6-difluoro-3,5-dimethoxyphenyl)-7-(1,3-dimethyl-1H-pyrazol-4-yl)-1-(5-methoxypyrazin-2-yl)-3,4-dihydropyrido[4,3-d]pyrimidin-2(1H)-one] |  |
|  | 0.03 to 0.2 | < 0.01 | >3 |  | 0.03 to 0.2 | COc1cc(OC)c(F)c(N2Cc3cnc(-c4cncc(C(=O)N5CCOCC5)c4)cc3C3(CC3)C2=O)c1F [Example 13, 2′-(2,6-difluoro-3,5-dimethoxyphenyl)-6′-(5-(morpholine-4-carbonyl)pyridin-3-yl)-1′H-spiro[cyclopropane-1,4′-[2,7]naphthyridin]-3′(2′H)-one] | IC50 (FGFR1; read-out: FGFR1 IC50, pre-incubated for 5 to 10 minutes): > 200 nM; IC50 (FGFR1; [6]): > 200 nM; IC50 (FGFR2; [2]): 0.03 to 0.2 µM; FGFR1/FGFR4 IC50 ratio (FGFR4; [2]): >50; FGFR2/FGFR4 IC50 ratio (FGFR4; [2]): >20; FGFR3/FGFR4 IC50 ratio (FGFR4; [2]): >10; FGFR1/FGFR4 IC50 ratio (FGFR4; pre-incubated for 4 hours): >50; FGFR2/FGFR4 IC50 ratio (FGFR4; pre-incubated for 4 hours): >25; FGFR3/FGFR4 IC50 ratio (FGFR4; pre-incubated for 4 hours): >10; IC50 (FGFR4; [2]): < 0.01 µM; IC50 (FGFR3 enzyme; [3]): 0.03 to 0.2 µM |
|  | < 0.01 | < 0.01 | >5 | >5 | < 0.01 | COc1cc(OC)c(F)c(N2Cc3cnc(-c4cnn(C5CCN(C(C)=O)C5)c4)cc3C3(CC3)C2=O)c1F (stereo not drawn) [Example 150, 6′-(1-(1-acetylpyrrolidin-3-yl)-1H-pyrazol-4-yl)-2′-(2,6-difluoro-3,5-dimethoxyphenyl)-1′H-spiro[cyclopropane-1,4′-[2,7]naphthyridin]-3′(2′H)-one] | IC50 (FGFR1; [6]): < 10 nM |
| 30 to 200 | 0.01 to 0.03 | 0.03 to 0.2 | >5 | >5 | < 0.01 | COc1cc(OC)c(F)c(N2Cc3cnc(-c4cn(C)nc4C)cc3N(Cc3ccc4c(c3)OCCO4)C2=O)c1F [Example 38, 3-(2,6-difluoro-3,5-dimethoxyphenyl)-1-((2,3-dihydrobenzo[b][1,4]dioxin-6-yl)methyl)-7-(1,3-dimethyl-1H-pyrazol-4-yl)-3,4-dihydropyrido[4,3-d]pyrimidin-2(1H)-one] |  |
| 30 to 200 | 0.01 to 0.03 | > 0.2 | >3 | >10 | 0.01 to 0.03 | CCn1cc(N2C(=O)N(c3c(F)c(OC)cc(OC)c3F)Cc3cnc(-c4cn(C)nc4C)cc32)cn1 [Example 131, 3-(2,6-difluoro-3,5-dimethoxyphenyl)-7-(1,3-dimethyl-1H-pyrazol-4-yl)-1-(1-ethyl-1H-pyrazol-4-yl)-3,4-dihydropyrido[4,3-d]pyrimidin-2(1H)-one] |  |

Further lines, the compound ahead of its results:

| Compound | IC50 (FGFR1; [4]) [nM] | IC50 (FGFR2; pre-incubated for 4 hours) [µM] | IC50 (FGFR4; pre-incubated for 4 hours) [µM] | FGFR1/FGFR3 IC50 ratio (FGFR3 enzyme; pre-incubated for 4 hours) | FGFR4/FGFR3 IC50 ratio (FGFR3 enzyme; pre-incubated for 4 hours) | IC50 (FGFR3 enzyme; [5]) [µM] | also measured |
| --- | --- | --- | --- | --- | --- | --- | --- |
| COc1cc(OC)c(F)c(N2Cc3cnc(-c4cn(C)nc4C)cc3N(c3ccc4c(c3)CC(=O)N4)C2=O)c1F [Example 119, 3-(2,6-difluoro-3,5-dimethoxyphenyl)-7-(1,3-dimethyl-1H-pyrazol-4-yl)-1-(2-oxoindolin-5-yl)-3,4-dihydropyrido[4,3-d]pyrimidin-2(1H)-one] |  |  |  |  |  |  | IC50 (FGFR1; [1]): 10 to 30 nM; IC50 (FGFR2; [2]): < 0.01 µM; IC50 (FGFR4; [2]): 0.01 to 0.03 µM; IC50 (FGFR3 enzyme; [3]): < 0.01 µM |
| COc1cc(OC)c(F)c(N2Cc3cnc(-c4ccc(C5(C#N)CCC5)nc4)cc3N(C3CCC3)C2=O)c1F [Example 136, 1-(5-(1-cyclobutyl-3-(2,6-difluoro-3,5-dimethoxyphenyl)-2-oxo-1,2,3,4-tetrahydropyrido[4,3-d]pyrimidin-7-yl)pyridin-2-yl)cyclobutanecarbonitrile] |  |  |  |  |  |  | IC50 (FGFR1; [1]): 30 to 200 nM; IC50 (FGFR2; [2]): 0.01 to 0.03 µM; IC50 (FGFR4; [2]): 0.03 to 0.2 µM; IC50 (FGFR3 enzyme; [3]): 0.01 to 0.03 µM |
| CNS(=O)(=O)c1cccc(N2C(=O)N(c3c(F)c(OC)cc(OC)c3F)Cc3cnc(-c4cn(C)nc4C)cc32)c1 [Example 111, 3-(3-(2,6-difluoro-3,5-dimethoxyphenyl)-7-(1,3-dimethy-1H-pyrazol-4-yl)-2-oxo-3,4-dihydropyrido[4,3-d]pyrimidin-1(2H)-yl)-N-methylbenzenesulfonamide] | 10 to 30 | < 0.01 | 0.03 to 0.2 | >3 | >5 | < 0.01 |  |
| COc1cc(OC)c(F)c(N2Cc3cnc(-c4cn(C)nc4C)cc3N(Cc3ccnc(C)n3)C2=O)c1F [Example 121, 3-(2,6-difluoro-3,5-dimethoxyphenyl)-7-(1,3-dimethyl-1H-pyrazol-4-yl)-1-((2-methylpyrimidin-4-yl)methyl)-3,4-dihydropyrido[4,3-d]pyrimidin-2(1H)-one] |  |  |  |  |  |  | IC50 (FGFR1; [1]): 10 to 30 nM; IC50 (FGFR2; [2]): < 0.01 µM; IC50 (FGFR4; [2]): 0.03 to 0.2 µM; IC50 (FGFR3 enzyme; [3]): < 0.01 µM |
| COc1cc(OC)c(F)c(N2Cc3cnc(-c4cn(C)nc4C)cc3N(c3ccc(S(C)(=O)=O)cc3)C2=O)c1F [Example 98, 3-(2,6-difluoro-3,5-dimethoxyphenyl)-7-(1,3-dimethyl-1H-pyrazol-4-yl)-1-(4-(methylsulfonyl)phenyl)-3,4-dihydropyrido[4,3-d]pyrimidin-2(1H)-one] | 30 to 200 | 0.01 to 0.03 | 0.03 to 0.2 | >5 | >10 | 0.01 to 0.03 |  |
| COCCN1C(=O)N(c2c(F)c(OC)cc(OC)c2F)Cc2cnc(-c3ccc(C4(C#N)CCC4)nc3)cc21 [Example 139, 1-(5-(3-(2,6-difluoro-3,5-dimethoxyphenyl)-1-(2-methoxyethyl)-2-oxo-1,2,3,4-tetrahydropyrido[4,3-d]pyrimidin-7-yl)pyridin-2-yl)cyclobutanecarbonitrile] |  |  |  |  |  |  | IC50 (FGFR1; [1]): 30 to 200 nM; IC50 (FGFR2; [2]): < 0.01 µM; IC50 (FGFR4; [2]): 0.03 to 0.2 µM; IC50 (FGFR3 enzyme; [3]): < 0.01 µM |
| COC(=O)N1CCC(N2C(=O)N(c3c(F)c(OC)cc(OC)c3F)Cc3cnc(-c4cn(C)nc4C)cc32)CC1 [Example 122, Methyl 4-(3-(2,6-difluoro-3,5-dimethoxyphenyl)-7-(1,3-dimethyl-1H-pyrazol-4-yl)-2-oxo-3,4-dihydropyrido[4,3-d]pyrimidin-1(2H)-yl)piperidine-1-carboxylate] |  | 0.01 to 0.03 | 0.03 to 0.2 | >5 | >5 |  | IC50 (FGFR1): 30 to 200 nM; IC50 (FGFR3 enzyme): 0.01 to 0.03 µM |
| COc1cc(OC)c(F)c(N2Cc3cnc(-c4cn(C)nc4C)cc3N(Cc3cnn(CC#N)c3)C2=O)c1F [Example 125, 2-(4-((3-(2,6-difluoro-3,5-dimethoxyphenyl)-7-(1,3-dimethyl-1H-pyrazol-4-yl)-2-oxo-3,4-dihydropyrido[4,3-d]pyrimidin-1(2H)-yl)methyl)-1H-pyrazol-1-yl)acetonitrile] | 30 to 200 | < 0.01 | 0.03 to 0.2 | >5 | >5 | 0.01 to 0.03 |  |
| COc1cc(OC)c(F)c(N2Cc3cnc(-c4cn(C)nc4C)cc3N(c3ccc(F)c(C#N)c3)C2=O)c1F [Example 66, 5-(3-(2,6-difluoro-3,5-dimethoxyphenyl)-7-(1,3-dimethyl-1H-pyrazol-4-yl)-2-oxo-3,4-dihydropyrido[4,3-d]pyrimidin-1(2H)-yl)-2-fluorobenzonitrile] |  | 0.03 to 0.2 | 0.03 to 0.2 | >5 | >5 | 0.01 to 0.03 | IC50 (FGFR1; [6]): > 200 nM |
| COc1cc(OC)c(F)c(N2Cc3cnc(-c4ccccc4)cc3C3(CC3)C2=O)c1F [Example 17, 2′-(2,6-difluoro-3,5-dimethoxyphenyl)-6′-phenyl-1′H-spiro[cyclopropane-1,4′-[2,7]naphthyridin]-3′(2′H)-one] |  | 0.03 to 0.2 | 0.01 to 0.03 | >10 |  | 0.01 to 0.03 | IC50 (FGFR1; [6]): > 200 nM |
| COc1cc(OC)c(F)c(N2Cc3cnc(-c4cn(C)nc4C)cc3N(C3CCN(S(C)(=O)=O)CC3)C2=O)c1F [Example 71, 3-(2,6-difluoro-3,5-dimethoxyphenyl)-7-(1,3-dimethyl-1H-pyrazol-4-yl)-1-(1-(methylsulfonyl)piperidin-4-yl)-3,4-dihydropyrido[4,3-d]pyrimidin-2(1H)-one] |  | 0.03 to 0.2 | 0.03 to 0.2 | >5 | >3 |  | IC50 (FGFR1): 30 to 200 nM; IC50 (FGFR3 enzyme): 0.01 to 0.03 µM |
